Results on one compound are retold here after ChEMBL document CHEMBL5143742, “Discovery and Characterization of a Novel Series of Chloropyrimidines as Covalent Inhibitors of the Kinase MSK1” (ACS Med Chem Lett, 2022).

The nature of series [1]: Intrinsic clearance in human liver microsomes assessed per mg protein. It is filed as ADME, Microsome.
Series [2] can be described thus: Intrinsic clearance in mouse liver microsomes assessed per mg protein. It is filed as ADME, Microsome. In general terms: Liver microsomes are a subcellular fraction often used to study metabolism.
The nature of series [3]: Lipophilicity, log D of the compound. It is filed as physicochemical. Particulars: octanol/water.

The term logD denotes lipophilicity at a set pH, counting ionised and neutral species. Low values mean lower lipophilicity, high ones higher lipophilicity.

With `Clc1ncc(Cl)c(-n2ccc3ncccc32)n1`, the CLH in series [1] was found to be 11.7 µL/min; in series [2], 131 µL/min. In series [3], this compound had a logD of 2.3.
